What was measured:
[1] = tested on: mice (129Sv background); assay: mice, 48 hrs fasting / 48 hrs refeeding fat free diet; assay type: in vivo
Description: The drug-like chemical structure of fatostatin A prompted the inventors to investigate its ability to inhibit SREBP-1 in the liver of whole animals. The effect of fatostatin A on hepatic SREBP-1 under lipogenic conditions of prolonged fasting (48 hours) followed by feeding fat free high carbohydrate diet for another 48 hours was examined. Mice were intraperitoneally injected with fatostatin A at 30 mg/kg/day for 5 days starting one day prior to the 48-hour fasting period. After 48 hours of fasting, the treated group lost more weight than the control group did (6.12±0.6 compared to 4.9±0.3 gram/mouse; p=0.01.) (FIG. 6A).
The expression levels of SREBP-1 in the liver extracts were examined by western blots. […] The hepatic expression of fatty acid synthase (FAS), a representative of SREBP-1-responsive lipogenic enzymes (Boizard et al., 1998), was also determined after the treatment. […] The activity of acetyl-CoA carboxylase (ACC) (FIG. 6F), which is also regulated by SREBP-1, decreased in liver extracts as observed for FAS (FIG. 6G).
Male mice (129Sv background) were housed under controlled conditions (12-hr light/dark cycle; 25° C.) in the Animal Care Center at Baylor College of Medicine and had ad libitum access to standard laboratory chow (Purina Mills) and water. Fatostatin A was administered intraperitoneally (30 mg/kg; 150 μL) to 5-6 month old male mice (129Sv background) using two different protocols. First protocol involves fasting the mice for 48 hrs, followed by refeeding fat free diet for another 48 hrs. This treatment induces both activities and levels of lipogenic enzymes such as ACC and FAS in addition to SREBPs. The administration of fatostatin A or 10% DMSO in PBS to control groups (n=5) started 24 hrs before the fasting and continued daily until the end of the experiment.
In the second protocol, two groups of male mice (n=5) were treated daily for two weeks with either 30 mg/kg fatostatin A or 10% DMSO in PBS. Food intake and body weight were measured daily. At the end of the experiments, the mice were briefly fasted for 4-5 hrs, and their blood was withdrawn for determination of serum constituents. The mice were then sacrificed, and their livers were quickly removed and ground to powder in liquid nitrogen. The powdered tissues were suspended in 10 ml of PBS containing 0.1 mM PMSF, 5 mM benzamidine, and 5 mg/mL protease inhibitor cocktail (Roche), homogenized using Polytron (3×30 Sec, at a high speed), and sonicated briefly to degrade DNA. The extracts were clarified by centrifugation at 16,000×g for 20 min. The samples were then subjected to western blot analysis using commercially available antibodies against FAS and SREBP-1. FAS and ACC activities were determined as described earlier (Mao et al., 2006).

[2] = tested on: SREBP-2; assay: Western blot analysis of SREBP processing in CHO-K1 cells; assay type: cell-based, Chinese hamster
Source text: To determine if fatostatin affects the ER-Golgi translocation and proteolytic processing of SREBPs, a reporter assay developed by Sakai et al. (1998) was used. PLAP-BP2 in transfected CHO-K1 cells remains membrane-bound unless it is cleaved by S1P in the Golgi and secreted into the culture medium. In the assay, a secreted alkaline phosphatase, fused with an SREBP-2 fragment lacking the NH2-terminal DNA-binding domain (PLAP-BP2513-1141), permits monitoring of translocation and processing through changes in the fluorescence of a fluorogenic phosphatase substrate (FIG. 18C). When cells were co-transfected with plasmids encoding PLAP-BP2513-1141 and SCAP, PLAP phosphatase was secreted, generating fluorescence signals. […] The fatostatin-mediated inhibition of SREBP activation was confirmed by western blot analysis of SREBPs. […] Similar results were obtained for SREBP-1 (FIG. 22).
Western blot analysis of SREBP processing. […] The protein concentration of each total cell extract was measured (BCA kit; Pierce), after which a 22-33 μg aliquot of cell extract was mixed with 0.25 volume of buffer (250 mM Tris-HCl, pH 6.8, 10% SDS, 25% glycerol, 0.2% (w/v) bromophenol blue, and 5% (v/v) 2-mercaptoethanol), heated for 7 min at 95° C. […]

[3] = tested on: SUM159 cells; assay: SUM159 cell growth, WST-1 assay, and lipogenic gene expression; assay type: cell-based, human
Description: Cells were seeded onto 96 well plates at a density of 10000 cells/well in 100 ul medium containing 2% charcoal stripped serum. After 24 hours, compound 19 was added to the cells at the indicated concentrations for another 48 hours. Cell viability was determined using WST-1 assay.
Cells seeded onto 96 well plates at a density of 5000 cells/well in 100 μl medium containing 2% charcoal treated serum. After 24 hours different concentrations of compound 19 were added for an additional 48 hours. Cell viability was measured using WST-1 Cell Viability and Proliferation Assay (ScienCell Research Laboratory, Carlsbad Calif.). Changes in expression levels of lipogenic genes mRNA was determined in cells that were treated with 10 μM. […] Insig2 gene which is not known to be regulated by these transcription factors was not affected by the treatment (FIG. 33B).

SMILES	decrease of FAS expression level in liver extracts (western blot) ([1]; 30 mg/kg/day ip)	food intake and toxicity during the treatment ([1]; 30 mg/kg/day ip for 5 days)	weight lost after 48 hours of fasting ([1]; 30 mg/kg/day ip, control 4.9±0.3)	serum glucose ([1]; after 48 hours of refeeding fat free high carbohydrate diet, control 137±14)	serum LDL ([1]; after 48 hours of refeeding, control 30±6)	serum cholesterol ([1]; after 48 hours of refeeding, control 120±19)	amounts of mature and precursor forms of SREBP-2 (western blot) [2]	expression levels of lipogenic genes mRNA under the control of SREBPs ([3]; 10 μM, Insig2 not affected)	cell growth / viability ([3]; different concentrations, 48 hours, 2% charcoal treated serum)
CCCc1cc(-c2nc(-c3ccc(C)cc3)cs2)ccn1 [Compound 1, 2-propyl-4-(4-p-tolylthiazol-2-yl)pyridine]	up to 30%	No reduction of food intake or obvious toxicity	6.12±0.6 gram/mouse	110 ± 23 mg/dL	16 ± 5 mg/dL	93 ± 20 mg/dL	decreased the amount of the 68 KDa mature form of SREBP-2		
CCCc1cc(-c2nc(-c3ccc(NS(C)(=O)=O)cc3)cs2)ccn1 [Compound 19, N-(4-(2-(2-propylpyridin-4-yl)thiazol-4-yl)phenyl)methanesulfonamide]								significant downregulation	inhibition of cell growth and a toxic effect

— patent US9713613B2, “Methods and compositions for the treatment of cancer and related hyperproliferative disorders” (priority 2007, dated 2017)
